Reference: US8466202B2, “Anthracenedione compounds” (Sunten Phytotech Co., Ltd., priority 2006, dated 2013)
“And” between values parts separate entries of the source, which are not always exact repeats. Identical values can stand only once.

Legend:
healthy male S.D. rats [1] = test: Feces production in rats given Rheum palmatum Linne extracts for three weeks (Example 2); format: in vivo, rat; details: oral everyday, Rheum palmatum crude extract 500, Bisacodyl 1.75, Sennosides 3.55, STD03 180, STD05-1 12, STD05-2 24 mg/kg; for Water content: feces; for Pellet count / Wet Weight: total of the six rats in the group
Description: The laxative activities by Rheum palmatum Linne extracts were studied. A crude Rheum palmatum Linne extract and STD05 were obtained from SunTen Phytotech Co., Ltd. (Jhonghe City, Taiwan). Commercial available laxatives, Through® (Chung Mei Pharmaceutical Co., Ltd.; active ingredient: Sennosides 20 mg, as Sennosides A+B 12 mg, Lot. 009A 051) and Dulcolax® (Boehringer Ingelheim, Taiwan, Ltd.; active ingredient: Bisacodyl; Lot. 480-4942) were obtained from a pharmacy.
Forty-two healthy male S.D. rats (8 weeks old; National Laboratory Animal Center, Taiwan) were divided into seven groups (six in each) and tested for the laxative activity by Rheum palmatum Linne extracts. The rats in one group were not fed with any extract or drug and used as negative controls. The rats in the second and third group were given Sennosides (3.55 mg/kg) and Bisacodyl (1.75 mg/kg), respectively, and used as positive controls. The Rats in the other four groups were given Rheum palmatum Linne crude extract (500 mg/kg), filtered crude extract STD03 (180 mg/kg), and STD05 (STD05-1: 12 mg/kg and STD05-2: 24 mg/kg), respectively. All substances were administered orally everyday for three weeks.
The experiments were carried out under conditions in which temperature, humidity, and lighting were all controlled. Each rat was fed standard rat food and water ad libitum in housing that provided a 12-hour light/dark cycle. The rats were divided into seven groups according to the body weights.
The first part of the experiment studied the effect of the above-mentioned extracts on feces production. During the three-week period, any rat that appeared dying was euthanized, dissected, and studied to check for any illness or injures. Any complications or illness were analyzed by H&E stains to determine the cause of death and to allow for dosage reconsiderations for future experiments.
During this period, the body weights of the rats were weighed each day and recorded. Feces of each rat were studied three times during the period for any unusual observations. Specifically, the amounts of feces were weighed on Days 11, 15, 18, and 21. During observation, each rat was placed in a metabolic cage. Feces were collected every twenty-four hours. The number of collected feces pellets was counted, and the pellets' shapes and colors were evaluated. After weighing the moist feces, they were dried in an oven at 100° C. for twenty-four hours. The water content from the feces was calculated according to the following formula: Water content percentage=[(wet weight−dry weight)/wet weight]×100%.
Intestine motility data were expressed as mean±SD. Data were analyzed using the one-way ANOVA method. For comparison within the groups, a Post hoc Comparison was applied. In both feces production and intestine motility analyses, p<0.05 indicates significant differences. For the feces production tests, the data for each group and each time point represent the total wet weight or pellet count of the six rats in the group.

healthy male S.D. rats [2] = test: Feces production in rats over the 10-day period (Example 3); format: in vivo, rat; details: for increase of the feces amount (wet weight): vs control of the same group; for Pellet count / Water content / Wet Weight: Group II, Sennosides 3.35 mg/kg, STD05 24 mg/kg, ARE 24 mg/kg, Chrysophanol 4 mg/kg, Emodin 4 mg/kg
Description: During this period, the body weights of the rats were weighed each day and recorded. Feces of each rat were studied three times during the period for any unusual observations. Specifically, the amounts of feces were weighed on Days 11, 15, 18, and 21. During observation, each rat was placed in a metabolic cage. Feces were collected every twenty-four hours. The number of collected feces pellets was counted, and the pellets' shapes and colors were evaluated. After weighing the moist feces, they were dried in an oven at 100° C. for twenty-four hours. The water content from the feces was calculated according to the following formula: Water content percentage=[(wet weight−dry weight)/wet weight]×100%. (I) The results are summarized in Table 2 below: The aforementioned STD05 and compounds were studied for the laxative activity. Healthy male S.D. rats (BioLASCO Taiwan Co. Ltd.) were divided into three groups (i.e., Groups 1-3) in this study. In Group I, 6 rats, as negative control, were given no treatment; 6 rats, as positive control, were given 3.35 mg/kg/day Sennosides (Through®, Chung Mei Pharmaceutical Co., Ltd; Active ingredient: Sennosides 20 mg, as sennoside A+B 12 mg, Lot. 012F 006); 6 rats were treated STD05 (8 mg/kg/day); 6 rats were treated with an extract fraction containing aloe-emodin, rhein, and emodin (“ARE”, 8 mg/kg/day); 6 rats were treated with Aloe-emodin (4 mg/kg/day); and 6 rats were treated with Rhein (4 mg/kg/day). In Group II, 6 rats, as negative control, were given no treatment; 6 rats, as positive control, were given 3.35 mg/kg/day Sennosides; 6 rats were treated STD05 (24 mg/kg/day); 6 rats were treated with an extract fraction containing ARE (24 mg/kg/day); 6 rats were treated with Chrysophanol (4 mg/kg/day); and 6 rats were treated with Emodin (4 mg/kg/day). In Group III, 6 rats, as negative control, were given no treatment; 6 rats were treated with Physcoin (4 mg/kg/day); and 6 rats were treated with a mixture of chrysophanol and physcion (8 mg/kg/day, “CP”). The experiments were carried out under controlled temperature, humidity, and lighting. Each rat was fed standard rat food and water ad libitum in housing that provided a 12-hour light/dark cycle. For statistical comparison, all of the rats were divided into six sets according to the body weights. The first part of the experiment studied the effect of the test substances on feces production. During the 10-day period, the body weights of the rats were weighed each day and recorded. The rat's feces was also studied three times in the manner described above during the 10-day period for any unusual observations. During the 10-day period, any rat that appeared dying was euthanized, dissected, and examined for any illness or injury. Any complications or illness were analyzed by H&E stains to determine the cause of death and to allow for dosage reconsiderations for future experiments. Summarized in Table 4 below are the effects of the compounds, mixtures, or extracts on the rat body weights. During the period, feces produced by the rats were studied days 1, 5, and 10 in the same manner described above. […] In the 10-day period, the rats administered with STD05 produced more feces (wet weight) that the rats in the control group by about 32%. In addition, the pellet counts for the rats administered with STD05 were greater than those for the control rats by about 20%. Furthermore, STD05 increased the water content in feces by about 18%. The same experiments were conducted on rats administered with physcion, aloe-emodin, chrysophanol, rhein, emodin, CP, and ARE.

[3] = Body weight of rats over the 10-day period (Example 3); format: in vivo, rat; parameters: Body weight Difference: unit not given here; details: Group II, Sennosides 3.35 mg/kg/day, STD05 24 mg/kg, ARE 24 mg/kg, Chrysophanol 4 mg/kg, Emodin 4 mg/kg
Description: The aforementioned STD05 and compounds were studied for the laxative activity. Healthy male S.D. rats (BioLASCO Taiwan Co. Ltd.) were divided into three groups (i.e., Groups 1-3) in this study. In Group I, 6 rats, as negative control, were given no treatment; 6 rats, as positive control, were given 3.35 mg/kg/day Sennosides (Through®, Chung Mei Pharmaceutical Co., Ltd; Active ingredient: Sennosides 20 mg, as sennoside A+B 12 mg, Lot. 012F 006); 6 rats were treated STD05 (8 mg/kg/day); 6 rats were treated with an extract fraction containing aloe-emodin, rhein, and emodin (“ARE”, 8 mg/kg/day); 6 rats were treated with Aloe-emodin (4 mg/kg/day); and 6 rats were treated with Rhein (4 mg/kg/day). In Group II, 6 rats, as negative control, were given no treatment; 6 rats, as positive control, were given 3.35 mg/kg/day Sennosides; 6 rats were treated STD05 (24 mg/kg/day); 6 rats were treated with an extract fraction containing ARE (24 mg/kg/day); 6 rats were treated with Chrysophanol (4 mg/kg/day); and 6 rats were treated with Emodin (4 mg/kg/day). In Group III, 6 rats, as negative control, were given no treatment; 6 rats were treated with Physcoin (4 mg/kg/day); and 6 rats were treated with a mixture of chrysophanol and physcion (8 mg/kg/day, “CP”). The experiments were carried out under controlled temperature, humidity, and lighting. Each rat was fed standard rat food and water ad libitum in housing that provided a 12-hour light/dark cycle. For statistical comparison, all of the rats were divided into six sets according to the body weights. The first part of the experiment studied the effect of the test substances on feces production. During the 10-day period, the body weights of the rats were weighed each day and recorded. The rat's feces was also studied three times in the manner described above during the 10-day period for any unusual observations. During the 10-day period, any rat that appeared dying was euthanized, dissected, and examined for any illness or injury. Any complications or illness were analyzed by H&E stains to determine the cause of death and to allow for dosage reconsiderations for future experiments. Summarized in Table 4 below are the effects of the compounds, mixtures, or extracts on the rat body weights.

[4] = Enteric absorption rate (statement, no method given); details: general statement
[5] = Side effects compared with Rheum palmatum Linne herb extracts (statement, no method given); details: general statement

For `CC(=O)Oc1ccc(C(c2ccc(OC(C)=O)cc2)c2ccccn2)cc1` [Bisacodyl], which Water content (healthy male S.D. rats [1]; Day 11) is on record?
Its Water content is 64.45%.

And the Pellet count (healthy male S.D. rats [1]; Day 11)?
Its Pellet count is 116.

What about the “Wet Weight” value (healthy male S.D. rats [1]; Day 11) of the same compound?
The value was 33.84 g.

What about the Water content (healthy male S.D. rats [1]; Day 15) of the same compound?
The Water content was 68.34%.

What about the Pellet count (healthy male S.D. rats [1]; Day 15) of the same compound?
Its Pellet count is 110.

And the “Wet Weight” value (healthy male S.D. rats [1]; Day 15)?
The value was 41.64 g.

And the Water content (healthy male S.D. rats [1]; Day 18)?
Its Water content is 66.65%.

What about the Pellet count (healthy male S.D. rats [1]; Day 18) of the same compound?
The Pellet count was 81.

What about the “Wet Weight” value (healthy male S.D. rats [1]; Day 18) of the same compound?
The value was 30.14 g.

What about the Water content (healthy male S.D. rats [1]; Day 21) of the same compound?
Its Water content is 68.02%.

And the Pellet count (healthy male S.D. rats [1]; Day 21)?
The Pellet count was 108.

And the “Wet Weight” value (healthy male S.D. rats [1]; Day 21)?
The value was 40.13 g.

With `Cc1cc(O)c2c(c1)C(=O)c1cccc(O)c1C2=O` [Chrysophanol, chrysophanol] as the compound, how does the “increase of the feces amount (wet weight)” value (healthy male S.D. rats [2]; Day 1) read?
The value was 19%.

And the “increase of the feces amount (wet weight)” value (healthy male S.D. rats [2]; Day 5)?
Its value is 16%.

What about the “increase of the feces amount (wet weight)” value (healthy male S.D. rats [2]; Day 10) of the same compound?
The value was 14%.

And the Pellet count (healthy male S.D. rats [2]; Day 1)?
Its Pellet count is 128.

And the Water content (healthy male S.D. rats [2]; Day 1)?
Its Water content is 50.82%.

And the “Wet Weight” value (healthy male S.D. rats [2]; Day 1)?
Its value is 28.86 g.

What about the Pellet count (healthy male S.D. rats [2]; Day 5) of the same compound?
The Pellet count was 119.

What about the Water content (healthy male S.D. rats [2]; Day 5) of the same compound?
Its Water content is 51.22%.

What about the “Wet Weight” value (healthy male S.D. rats [2]; Day 5) of the same compound?
The value was 26.48 g.

What about the Pellet count (healthy male S.D. rats [2]; Day 10) of the same compound?
The Pellet count was 127.

What about the Water content (healthy male S.D. rats [2]; Day 10) of the same compound?
Its Water content is 56.52%.

What about the “Wet Weight” value (healthy male S.D. rats [2]; Day 10) of the same compound?
Its value is 28.83 g.

And the “increase of the feces amount (wet weight), average” value (healthy male S.D. rats [2]; average of Days 1, 5 and 10)?
Its value is 16%.

And the Body weight Difference, Mean ([3]; group mean, Day 10 minus Day 1)?
The Body weight Difference, Mean was 33 g.

And the Body weight End Day 10, Mean ([3]; group mean)?
Its Body weight End Day 10, Mean is 376 g.

And the “Body weight Difference” value ([3]; individual rats, Day 10 minus Day 1)?
Its value is 40 and 20 and 30 (2×) and 25 and 50.

And the “Body weight End Day 10” value ([3]; individual rats)?
The value was 370 (3×) and 385 and 350 and 410.

And the enteric absorption rate [4]?
The enteric absorption rate was “very low”.

What about the “side effects often seen in herb extracts (cramping, bloating, gas, and diarrhea)” value [5] of the same compound?
The value was “do not have the side effects”.
